Earlier results as cited in PMC9307173, “OX2R-selective orexin agonism is sufficient to ameliorate cataplexy and sleep/wake fragmentation without inducing drug-seeking behavior in mouse model of narcolepsy” (PLoS ONE, 2022).
Entries after “also recorded” stand apart in the source; their conditions may differ.

What was measured:
[1] = test system: addiction-like behaviors; conditions: OX1R-selective antagonist
Text: Orexin also activates the reward system. Orexin neurons in the LH project to the dopaminergic reward system in the ventral tegmental area (VTA), and promote the dopamine release in the nucleus accumbens and the prefrontal cortex, potentially inducing addiction-like behaviors and reinforcing effects. Orexin-mediated neural signaling also contributes to the development of addiction to drugs of abuse such as cocaine, morphine and nicotine. Anatomically, both OX1R and OX2R are present in VTA, with dopaminergic neurons predominantly expressing OX1R ...

[2] = test system: orexin knockout and orexin neuron-ablated mice; parameters: method as in PMID 28507129

SMILES	addiction-like behaviors induced by drugs of abuse or OXA (in words) [1]	wakefulness promotion (in words) ([2]; mouse models of narcolepsy)	cataplexy-like episodes (in words) ([2]; mouse models of narcolepsy / OXKO mice)	wake fragmentation (in words) ([2]; narcoleptic model mice / OXKO mice)
Cc1nc2ccc(NC(=O)Nc3ccnc4cccnc34)cc2o1 [SB334867]	inhibited	–	–	–
COc1ccc(-c2cccc(C(=O)N(C)C)c2)cc1S(=O)(=O)Nc1cccc(NCCNC(=O)c2ccccc2N(C)C)c1 [YNT-185]	–	promotes wakefulness	effectively suppressed cataplexy-like episodes; also recorded: ameliorates cataplexy-like episodes	did not appreciably ameliorate the wake fragmentation; also recorded: did not sufficiently suppress the active-phase fragmentation of wakefulness
